Reference: ChEMBL document CHEMBL1201861, “Genomics of Drug Sensitity in Cancer screening data, Wellcome Trust Sanger Institute”

Tests used:
Type in all cases: functional, cell-based
[1] = test system: BL-70; test: SANGER: Inhibition of human BL-70 cell growth in a cell viability assay.
[2] = test system: NCI-H889; test: cells; settings: Homo sapiens;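 further: cell growth inhibition of the cell line, read out with a viability assay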
Description: SANGER: Inhibition of human NCI-H889 cell growth in a cell viability assay.

[3] = test system: D-336MG; test: cells; settings: Homo sapiens
Description: SANGER: Inhibition of human D-336MG cell growth in a cell viability assay.

[4] = test system: RL95-2; test: cells; settings: Homo sapiens;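 further: RL95-2 growth inhibition determined through a cell viability readout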
Description: SANGER: Inhibition of human RL95-2 cell growth in a cell viability assay.

[5] = test system: IM-9; test: SANGER: Inhibition of human IM-9 cell growth in a cell viability assay.
[6] = test system: LB996-RCC; test: cells; settings: Homo sapiens
Description: SANGER: Inhibition of human LB996-RCC cell growth in a cell viability assay.

[7] = test system: ECC4; test: cells; settings: Homo sapiens;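 further: growth inhibition of ECC4 cells, read out with a cell viability assay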
Description: SANGER: Inhibition of human ECC4 cell growth in a cell viability assay.

[8] = test system: NCI-H1417; test: cells; settings: Homo sapiens;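 further: human NCI-H1417 cells, growth inhibition determined with a cell viability readout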
Description: SANGER: Inhibition of human NCI-H1417 cell growth in a cell viability assay.

[9] = test system: SUP-T1; test: cells; settings: Homo sapiens;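 further: growth inhibition of human SUP-T1 cells, read out as cell viability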
Description: SANGER: Inhibition of human SUP-T1 cell growth in a cell viability assay.

[10] = test system: NCI-H2196; test: cells; settings: Homo sapiens;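 further: cell viability assay used as the readout of growth inhibition in NCI-H2196 cells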
Description: SANGER: Inhibition of human NCI-H2196 cell growth in a cell viability assay.

[11] = test system: NCI-H748; test: cells; settings: Homo sapiens;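 further: growth inhibition of NCI-H748 cells, measured by a cell viability assay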
Description: SANGER: Inhibition of human NCI-H748 cell growth in a cell viability assay.

[12] = test system: CMK; test: cells; settings: Homo sapiens;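 further: growth inhibition of CMK cells, read out as cell viability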
Description: SANGER: Inhibition of human CMK cell growth in a cell viability assay.

[13] = test system: MHH-CALL-2; test: cells; settings: Homo sapiens;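 further: growth inhibition of the cell line, read out in a cell viability assay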
Description: SANGER: Inhibition of human MHH-CALL-2 cell growth in a cell viability assay.

[14] = test system: OE33; test: cells; settings: Homo sapiens;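 further: growth inhibition of human OE33 cells, measured by a cell viability assay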
Description: SANGER: Inhibition of human OE33 cell growth in a cell viability assay.

[15] = test system: HEC-1; test: cells; settings: Homo sapiens;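 further: growth inhibition of the cell line, read out with a cell viability assay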
Description: SANGER: Inhibition of human HEC-1 cell growth in a cell viability assay.

[16] = test system: BFTC-905; test: cells; settings: Homo sapiens
Description: SANGER: Inhibition of human BFTC-905 cell growth in a cell viability assay.

[17] = test system: U-118-MG; test: cells; settings: Homo sapiens
Description: SANGER: Inhibition of human U-118-MG cell growth in a cell viability assay.

[18] = test system: KYSE-150 cell line; test: cells; settings: Homo sapiens;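 further: growth inhibition of human KYSE-150 cells, read out with a cell viability assay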
Description: SANGER: Inhibition of human KYSE-150 cell growth in a cell viability assay.

[19] = test system: MES-SA; test: cells; settings: Homo sapiens;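 further: growth inhibition of human MES-SA cells, read out with a cell viability assay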
Description: SANGER: Inhibition of human MES-SA cell growth in a cell viability assay.

[20] = test system: MKN-28; test: cells; settings: Homo sapiens;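 further: cell viability assay read-out, IC50 reflects suppression of growth of human MKN-28 cells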
Description: SANGER: Inhibition of human MKN28 cell growth in a cell viability assay.

[21] = test system: DOK; test: cells; settings: Homo sapiens;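 further: cell viability assay read-out, values reflect inhibition of cell growth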
Description: SANGER: Inhibition of human DOK cell growth in a cell viability assay.

[22] = test system: EW-7; test: SANGER: Inhibition of human EW-7 cell growth in a cell viability assay.
[23] = test system: M059J; test: cells; settings: Homo sapiens;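 further: growth inhibition of M059J cells, read out with a cell viability assay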
Description: SANGER: Inhibition of human M059J cell growth in a cell viability assay.

[24] = test system: NCI-H727; test: cells; settings: Homo sapiens;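 further: growth inhibition of human NCI-H727 cells, read out with a cell viability assay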
Description: SANGER: Inhibition of human NCI-H727 cell growth in a cell viability assay.

[25] = test system: NCI-N87; test: cells; settings: Homo sapiens;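 further: growth inhibition of human NCI-N87 cells, read out with a cell viability assay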
Description: SANGER: Inhibition of human NCI-N87 cell growth in a cell viability assay.

[26] = test system: RMG-I; test: cells; settings: Homo sapiens;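 further: growth inhibition of human RMG-I cells, read out with a cell viability assay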
Description: SANGER: Inhibition of human RMG-I cell growth in a cell viability assay.

[27] = test system: SW1710; test: cells; settings: Homo sapiens;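 further: growth inhibition of SW1710 cells, determined with a cell viability assay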
Description: SANGER: Inhibition of human SW1710 cell growth in a cell viability assay.

[28] = test system: RCM-1; test: cells; settings: Homo sapiens;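 further: growth inhibition of the RCM-1 line, determined with a cell viability readout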
Description: SANGER: Inhibition of human RCM-1 cell growth in a cell viability assay.

[29] = test system: HTC-C3; test: cells; settings: Homo sapiens;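 further: inhibition of cell growth, read out with a cell viability assay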
Description: SANGER: Inhibition of human HTC-C3 cell growth in a cell viability assay.

[30] = test system: HCC1806; test: cells; settings: Homo sapiens;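 further: growth inhibition of the cancer cell line, determined with a cell viability assay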
Description: SANGER: Inhibition of human HCC1806 cell growth in a cell viability assay.

[31] = test system: BEN; test: cells; settings: Homo sapiens;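 further: growth inhibition of the BEN cell line, read out with a cell viability assay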
Description: SANGER: Inhibition of human BEN cell growth in a cell viability assay.

[32] = test system: SK-MES-1; test: cells; settings: Homo sapiens;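 further: growth inhibition of human SK-MES-1 cells, read out with a cell viability assay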
Description: SANGER: Inhibition of human SK-MES-1 cell growth in a cell viability assay.

[33] = test system: P12-Ichikawa; test: cells; settings: Homo sapiens
[34] = test system: MDA-MB-361; test: cells; settings: Homo sapiens
[35] = test system: SK-MEL-30; test: cells; settings: Homo sapiens;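 further: growth inhibition of SK-MEL-30 cells, determined with a cell viability assay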
Description: SANGER: Inhibition of human SK-MEL-30 cell growth in a cell viability assay.

[36] = test system: NCI-H2122; test: cells; settings: Homo sapiens;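 further: growth inhibition of the cells, read out with a cell viability assay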
Description: SANGER: Inhibition of human NCI-H2122 cell growth in a cell viability assay.

[37] = test system: HN; test: cells; settings: Homo sapiens
Description: SANGER: Inhibition of human HN cell growth in a cell viability assay.

[38] = test system: Calu-3; test: cells; settings: Homo sapiens;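 further: growth inhibition of human Calu-3 cells, determined with a cell viability assay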
Description: SANGER: Inhibition of human Calu-3 cell growth in a cell viability assay.

[39] = test system: BCPAP; test: cells; settings: Homo sapiens;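 further: growth inhibition of BCPAP cells, read out in a cell viability assay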
Description: SANGER: Inhibition of human BCPAP cell growth in a cell viability assay.

[40] = test system: CAL-54; test: cells; settings: Homo sapiens;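 further: growth inhibition of CAL-54 cells, read out by a viability measurement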
Description: SANGER: Inhibition of human CAL-54 cell growth in a cell viability assay.

[41] = test system: MC-IXC; test: cells; settings: Homo sapiens;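 further: growth inhibition of MC-IXC cells, read out with a cell viability assay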
Description: SANGER: Inhibition of human MC-IXC cell growth in a cell viability assay.

[42] = test system: HCC1395; test: cells; settings: Homo sapiens;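 further: growth inhibition of HCC1395 cells, read out by a cell viability assay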
Description: SANGER: Inhibition of human HCC1395 cell growth in a cell viability assay.

[43] = test system: HuO-3N1; test: cells; settings: Homo sapiens;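 further: cell viability readout used to measure how strongly compounds suppress proliferation of human HuO-3N1 cells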
Description: SANGER: Inhibition of human HuO-3N1 cell growth in a cell viability assay.

[44] = test system: HSC-4; test: cells; settings: Homo sapiens;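 further: growth inhibition of human HSC-4 cells, read out with a cell viability assay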
Description: SANGER: Inhibition of human HSC-4 cell growth in a cell viability assay.

[45] = test system: COR-L23; test: cells; settings: Homo sapiens;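 further: cell viability assay measuring how strongly compounds suppress growth of COR-L23 cells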
Description: SANGER: Inhibition of human COR-L23 cell growth in a cell viability assay.

[46] = test system: NCI-H520; test: cells; settings: Homo sapiens;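 further: growth inhibition of NCI-H520 cells, measured by a cell viability assay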
Description: SANGER: Inhibition of human NCI-H520 cell growth in a cell viability assay.

[47] = test system: FTC-133; test: cells; settings: Homo sapiens
[48] = test system: T98G; test: cells; settings: Homo sapiens;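 further: growth inhibition of T98G cells, read out by a cell viability assay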
Description: SANGER: Inhibition of human T98G cell growth in a cell viability assay.

[49] = test system: RO82-W-1; test: cells; settings: Homo sapiens;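 further: growth inhibition of human RO82-W-1 cells, measured with a cell viability assay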
Description: SANGER: Inhibition of human RO82-W-1 cell growth in a cell viability assay.

[50] = test system: SK-OV-3; test: cells; settings: Homo sapiens;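 further: growth inhibition of SK-OV-3 human cells, read out with a cell viability assay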
Description: SANGER: Inhibition of human SK-OV-3 cell growth in a cell viability assay.

[51] = test system: CWR22R; test: cells; settings: Homo sapiens, 22Rv1;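 further: growth inhibition of 22Rv1 cells, read out with a cell viability assay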
Description: SANGER: Inhibition of human 22RV1 cell growth in a cell viability assay.

[52] = test system: MDA-MB-231; test: cells; settings: Homo sapiens
Description: SANGER: Inhibition of human MDA-MB-231 cell growth in a cell viability assay.

[53] = test system: HCT-15; test: cells; settings: Homo sapiens;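 further: cell viability readout, IC50 reflecting suppression of HCT-15 cell growth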
Description: SANGER: Inhibition of human HCT-15 cell growth in a cell viability assay.

[54] = test system: SCC-25; test: cells; settings: Homo sapiens;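 further: growth inhibition of SCC-25 cells, measured with a cell viability assay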
Description: SANGER: Inhibition of human SCC-25 cell growth in a cell viability assay.

[55] = test system: NCI-H1651; test: cells; settings: Homo sapiens;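 further: Read-out is a cell viability assay, with IC50 expressing inhibition of NCI-H1651 cell growth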
Description: SANGER: Inhibition of human NCI-H1651 cell growth in a cell viability assay.

[56] = test system: HT-29; test: cells; settings: Homo sapiens;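 further: growth inhibition of human HT-29 cells, read out by a cell viability assay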
Description: SANGER: Inhibition of human HT-29 cell growth in a cell viability assay.

[57] = test system: ChaGo-K-1; test: cells; settings: Homo sapiens;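 further: growth inhibition of ChaGo-K-1 cells, read out with a cell viability assay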
Description: SANGER: Inhibition of human ChaGo-K-1 cell growth in a cell viability assay.

[58] = test system: CAL-39; test: cells; settings: Homo sapiens;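 further: cell viability assay measuring growth inhibition of CAL-39 cells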
Description: SANGER: Inhibition of human CAL-39 cell growth in a cell viability assay.

[59] = test system: CAL-51; test: cells; settings: Homo sapiens;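 further: human CAL-51 cell line, growth inhibition read out via a cell viability assay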
Description: SANGER: Inhibition of human CAL-51 cell growth in a cell viability assay.

[60] = test system: NCI-H2342; test: cells; settings: Homo sapiens
Description: SANGER: Inhibition of human NCI-H2342 cell growth in a cell viability assay.

[61] = test system: EW-22; test: cells; settings: Homo sapiens
Description: SANGER: Inhibition of human EW-22 cell growth in a cell viability assay.

[62] = test system: TI-73; test: cells; settings: Homo sapiens
Description: SANGER: Inhibition of human TI-73 cell growth in a cell viability assay.

[63] = test system: BT-549; test: cells; settings: Homo sapiens
Description: SANGER: Inhibition of human BT-549 cell growth in a cell viability assay.

[64] = test system: HuO9; test: cells; settings: Homo sapiens
Description: SANGER: Inhibition of human HuO9 cell growth in a cell viability assay.

[65] = test system: YH-13; test: cells; settings: Homo sapiens
Description: SANGER: Inhibition of human YH-13 cell growth in a cell viability assay.

CCNc1cc(N[C@H]2CC[C@@H](O)CC2)nc(Nc2ccc3c(ccn3Cc3ccccc3)c2)n1
IC50 [1]: > 5.12 µM
IC50 [2]: > 5.12 µM
IC50 [3]: > 5.12 µM
IC50 [4]: 3.2 µM
IC50 [5]: > 5.12 µM
IC50 [6]: > 5.12 µM
IC50 [7]: > 5.12 µM
IC50 [8]: > 5.12 µM
IC50 [9]: > 5.12 µM
IC50 [10]: > 5.12 µM
IC50 [11]: > 5.12 µM
IC50 [12]: > 5.12 µM
IC50 [13]: > 5.12 µM

N#C/C(=C1/Nc2ccccc2S1)c1ccnc(NCCc2cccnc2)n1
IC50 [14]: > 8 µM
IC50 [1]: 4.85 µM
IC50 [15]: > 8 µM
IC50 [16]: 3.37 µM
IC50 [17]: > 8 µM
IC50 [2]: > 8 µM
IC50 [18]: > 8 µM
IC50 [19]: 4.67 µM
IC50 [20]: > 8 µM
IC50 [21]: > 8 µM
IC50 [5]: > 8 µM
IC50 [22]: > 8 µM
IC50 [23]: > 8 µM
IC50 [6]: 2.86 µM
IC50 [24]: 0.893 µM
IC50 [25]: > 8 µM
IC50 [26]: > 8 µM
IC50 [27]: 1.59 µM
IC50 [28]: > 8 µM
IC50 [29]: 6.52 µM
IC50 [30]: 1.53 µM
IC50 [7]: > 8 µM
IC50 [8]: > 8 µM
IC50 [9]: > 8 µM
IC50 [31]: > 8 µM
IC50 [32]: 3.44 µM
IC50 [33]: > 8 µM
IC50 [34]: 6.49 µM
IC50 [35]: > 8 µM
IC50 [36]: 0.672 µM
IC50 [37]: > 8 µM
IC50 [38]: > 8 µM
IC50 [10]: > 8 µM
IC50 [39]: 4.45 µM
IC50 [40]: > 8 µM
IC50 [41]: > 8 µM
IC50 [42]: > 8 µM
IC50 [43]: 0.815 µM
IC50 [44]: > 8 µM
IC50 [45]: > 8 µM
IC50 [46]: > 8 µM
IC50 [47]: > 8 µM
IC50 [48]: > 8 µM
IC50 [49]: > 8 µM
IC50 [50]: > 8 µM
IC50 [51]: > 8 µM
IC50 [52]: > 8 µM
IC50 [53]: > 8 µM
IC50 [54]: 5.31 µM
IC50 [55]: > 8 µM
IC50 [11]: > 8 µM
IC50 [56]: 4.27 µM
IC50 [12]: 2.75 µM
IC50 [57]: 4.59 µM
IC50 [58]: > 8 µM
IC50 [59]: 5.3 µM
IC50 [13]: > 8 µM
IC50 [60]: 4.52 µM

COc1cc(C)c(Sc2cnc(NC(=O)c3ccc(CNC(C)C(C)(C)C)cc3)s2)cc1C(=O)N1CCN(C(C)=O)CC1 (stereo not drawn)
IC50 [1]: > 10.2 µM
IC50 [2]: > 10.2 µM
IC50 [3]: 6.78 µM
IC50 [4]: 4.51 µM
IC50 [5]: > 10.2 µM
IC50 [6]: > 10.2 µM
IC50 [7]: > 10.2 µM
IC50 [8]: > 10.2 µM
IC50 [9]: 7.48 µM
IC50 [10]: > 10.2 µM
IC50 [11]: > 10.2 µM
IC50 [12]: > 10.2 µM
IC50 [13]: > 10.2 µM

Cc1ccc(NC(=O)c2cccc(C(C)(C)C#N)c2)cc1Nc1ccc2ncn(C)c(=O)c2c1
IC50 [1]: 2.86 µM
IC50 [2]: > 4 µM
IC50 [3]: > 4 µM
IC50 [4]: > 4 µM
IC50 [5]: > 4 µM
IC50 [6]: > 4 µM
IC50 [7]: > 4 µM
IC50 [8]: > 4 µM
IC50 [9]: 1.74 µM
IC50 [10]: > 4 µM
IC50 [11]: > 4 µM
IC50 [12]: > 4 µM
IC50 [13]: > 4 µM
IC50 [61]: > 4 µM

Cc1n[nH]c2ccc(-c3cncc(OC[C@@H](N)Cc4c[nH]c5ccccc45)c3)cc12 [A-443654]
IC50 [1]: 0.057 µM
IC50 [2]: > 1.02 µM
IC50 [3]: 0.421 µM
IC50 [4]: 0.0228 µM
IC50 [5]: > 1.02 µM
IC50 [6]: 0.122 µM
IC50 [7]: > 1.02 µM
IC50 [8]: 0.584 µM
IC50 [9]: > 1.02 µM
IC50 [10]: 0.648 µM
IC50 [11]: 0.508 µM
IC50 [12]: 0.275 µM
IC50 [13]: > 1.02 µM

Cc1nc(Nc2ncc(C(=O)Nc3c(C)cccc3Cl)s2)cc(N2CCN(CCO)CC2)n1 [DASATINIB]
IC50 [1]: < 0.005 µM
IC50 [2]: > 1.28 µM
IC50 [3]: 0.0063 µM
IC50 [4]: 0.104 µM
IC50 [5]: > 1.28 µM
IC50 [6]: 0.00991 µM
IC50 [7]: > 1.28 µM
IC50 [8]: > 1.28 µM
IC50 [9]: > 1.28 µM
IC50 [10]: > 1.28 µM
IC50 [11]: > 1.28 µM
IC50 [12]: > 1.28 µM
IC50 [13]: > 1.28 µM

CCn1c(-c2nonc2N)nc2cnc(Oc3cccc(NC(=O)c4ccc(OCCN5CCOCC5)cc4)c3)cc21 [GSK-269962A]
IC50 [1]: > 2.5 µM
IC50 [2]: > 2.5 µM
IC50 [3]: 0.629 µM
IC50 [4]: > 2.5 µM
IC50 [5]: > 2.5 µM
IC50 [6]: > 2.5 µM
IC50 [7]: > 2.5 µM
IC50 [8]: > 2.5 µM
IC50 [9]: > 2.5 µM
IC50 [10]: > 2.5 µM
IC50 [11]: > 2.5 µM
IC50 [12]: 1.01 µM
IC50 [13]: > 2.5 µM
IC50 [61]: > 2.5 µM

Cc1[nH]c(/C=C2\C(=O)Nc3ccc(S(=O)(=O)Cc4c(Cl)cccc4Cl)cc32)c(C)c1C(=O)N1CCC[C@@H]1CN1CCCC1 [PHA-665752]
IC50 [1]: > 2 µM
IC50 [2]: > 2 µM
IC50 [3]: > 2 µM
IC50 [4]: > 2 µM
IC50 [5]: > 2 µM
IC50 [6]: > 2 µM
IC50 [7]: > 2 µM
IC50 [8]: > 2 µM
IC50 [9]: > 2 µM
IC50 [10]: > 2 µM
IC50 [11]: > 2 µM
IC50 [12]: > 2 µM
IC50 [13]: > 2 µM
IC50 [61]: > 2 µM

CC[C@]1(O)C[C@@H]2CN(CCc3c([nH]c4ccccc34)[C@@](C(=O)OC)(c3cc4c(cc3OC)N(C)[C@H]3[C@@](O)(C(=O)OC)[C@H](OC(C)=O)[C@]5(CC)C=CCN6CC[C@]43[C@@H]65)C2)C1 [VINBLASTINE]
IC50 [14]: 0.0286 µM
IC50 [15]: 0.0114 µM
IC50 [16]: 0.00377 µM
IC50 [17]: 0.0452 µM
IC50 [3]: 0.00725 µM
IC50 [18]: 0.0465 µM
IC50 [20]: 0.0027 µM
IC50 [21]: 0.0042 µM
IC50 [23]: 0.0151 µM
IC50 [24]: > 0.1 µM
IC50 [25]: 0.00567 µM
IC50 [26]: > 0.1 µM
IC50 [27]: 0.00561 µM
IC50 [28]: > 0.1 µM
IC50 [29]: 0.0104 µM
IC50 [30]: 0.00063 µM
IC50 [31]: 0.0812 µM
IC50 [32]: 0.00864 µM
IC50 [33]: 0.0017 µM
IC50 [34]: 0.00166 µM
IC50 [35]: > 0.1 µM
IC50 [36]: 0.00344 µM
IC50 [37]: 0.00415 µM
IC50 [38]: > 0.1 µM
IC50 [39]: 0.00233 µM
IC50 [40]: 0.0606 µM
IC50 [41]: 0.00299 µM
IC50 [42]: 0.0292 µM
IC50 [43]: 0.00483 µM
IC50 [62]: 0.00321 µM
IC50 [63]: 0.00798 µM
IC50 [44]: 0.00236 µM
IC50 [45]: 0.00362 µM
IC50 [46]: 0.0301 µM
IC50 [47]: 0.00844 µM
IC50 [48]: 0.0114 µM
IC50 [64]: 0.0126 µM
IC50 [49]: 0.00557 µM
IC50 [50]: > 0.1 µM
IC50 [65]: 0.0037 µM
IC50 [51]: 0.00982 µM
IC50 [52]: 0.0446 µM
IC50 [53]: 0.0786 µM
IC50 [54]: 0.0157 µM
IC50 [55]: 0.023 µM
IC50 [56]: 0.0459 µM
IC50 [57]: 0.00101 µM
IC50 [58]: 0.00511 µM
IC50 [59]: 0.0164 µM
IC50 [61]: 0.0293 µM
IC50 [60]: > 0.1 µM
